Data reported in article PMC9784969, “SARS-CoV-2 Inhibitors Identified by Phenotypic Analysis of a Collection of Viral RNA-Binding Molecules” (Pharmaceuticals, 2022).
Where two headings read alike, the source gives them in different places.

Tests used:
in vitro = conditions: African green monkey, uninfected Vero E6 cells
SCoV2 USA-WA1/2020 = assay type: cell-based; conditions: for nucleocapsid protein expression: 293T-ACE2, MOI 2, 8-h single cycle, added at +2 h relative to infection
SARS-CoV-2 = assay type: cell-based; conditions: 48 h post-infection
ORF7b RNA = experiment: ligand-based 1H NMR (1D, CPMG, wLOGSY); assay type: binding, SARS-CoV-2
3_S2m RNA [1] = experiment: RNA-based 1H NMR (TOCSY) titration; assay type: binding, SARS-CoV-2; conditions: RNA:ligand up to 1:4
Protocol: The RNA samples were previously diafiltrated into an aqueous solution containing 25 mM potassium phosphate (pH 6.2), 50 mM KCl and 0.1 mM EDTA, and the titration experiments were carried out at 27 °C using 50 μM RNA samples in 100% D2O. The 3_S2m titrations were duplicated at 25 °C using 120 μM RNA samples and additionally acquiring NOESY spectra (250 ms mixing time) at 1:0 and 1:4 ratios. For this system, the chemical shift perturbation analyses included 63 H1’, H2’, and aromatic 3_S2m resonances. The isolated 3_S2m hairpin was studied at two different temperatures (25 and 35 °C) using 120 and 500 μM RNA samples and similar TOCSY and NOESY (120 and 250 ms mixing times) experiments. […] The relaxation delay for NOESY and TOCSY acquisition was 2 and 1.5 s, respectively.

[2] = test system: subdomain IIa of the internal ribosome entry site (IRES) RNA of HCV; set-up: method as in earlier work; conditions: ref 6 (Table S1 list: Martín-Villamil et al. 2022); cited from earlier work
3_S2m RNA [3] = experiment: ligand-based 1H NMR (1D, CPMG, wLOGSY); assay type: binding, SARS-CoV-2
3_S2m-23fl RNA hairpin = experiment: fluorescence intensity binding assay; set-up: species or system SARS-CoV-2
Protocol: The 3_S2m-23fl RNA oligonucleotide used in fluorescence intensity experiments was purchased HPLC-purified from Integrated DNA Technologies (Coralville, IA, USA). […] The mixture of tRNAs from E. coli MRE 600 (identified as tRNA^mix) used to evaluate specificity was obtained from Roche (Basel, Switzerland).
3_S2m-23fl (at 100 nM concentration) was snap-cooled in a buffer containing sodium phosphate pH 6.6, 0 or 150 mM NaCl, and 0.1 mM EDTA and incubated with increasing amounts of compound. The specificity of the RNA–ligand interactions was evaluated by repeating the assays in the presence of a 100-fold molar excess (10 μM) of tRNA^mix. The equilibrium dissociation constants Kd were obtained by fitting the dose–response curves to a two-state binding model [41] with Prism software (GraphPad Software, San Diego, CA, USA). All fluorescence binding assays were carried out three times for each molecule and condition.

HIV-1 = conditions: ref 3 (Table S1 list: Simba-Lahuasi et al., Unpublished results); cited from earlier work
Vero E6 cells = conditions: read-out: SARS-CoV-2 CC50, uninfected, MTT
5_SL2+3 RNA = experiment: RNA-based 1H NMR (TOCSY) titration; assay type: binding, SARS-CoV-2; conditions: RNA:ligand up to 1:4
[4] = test system: subdomain IIB of the rev recognition element (RRE) of the HIV-1 genomic RNA; conditions: ref 3 (Table S1 list: Simba-Lahuasi et al., Unpublished results); cited from earlier work
[5] = average of aliphatic protons, RNA:ligand 1:100 (clomiphene) or 1:50 (trim, qz2)
[6] = average of aromatic protons, RNA:ligand 1:100 (clomiphene) or 1:50 (trim, qz2)
[7] = 0 mM NaCl, pH 6.6, 25 °C, read-out: Kd

## CC(C)CCN1CCC(CNc2nc3ccccc3c(=O)[nH]2)CC1 [qz2]
In vitro
  CC50 at 2 days: > 20 µM
SCoV2 USA-WA1/2020
  nucleocapsid protein expression: strongly inhibited
SCoV2 USA-WA1/2020; 293T-ACE2, MOI 2, relative to infection
  time of addition with maximum inhibition: -2 h
SARS-CoV-2
  viral titers in supernatants (TCID50): below the limit of detection
ORF7b RNA; [5]
  LB: -7.94%
  LOGSY factor: 6.35%
ORF7b RNA; [6]
  CPMG variation: 50.7%
  LB: 26.2%
  LOGSY factor: 33.7%
ORF7b RNA; qz2 peak A, RNA:ligand 1:50
  CPMG variation: -33.2%
  LB: -5.02%
  LOGSY factor: 3.94%
ORF7b RNA; qz2 peak C/D, RNA:ligand 1:50
  CPMG variation: -34.1%
  LB: -10.7%
  LOGSY factor: 9.65%
ORF7b RNA; qz2 peak E/B, RNA:ligand 1:50
  CPMG variation: -16.1%
  LB: -1.09%
  LOGSY factor: 5.54%
ORF7b RNA; qz2 peak F, RNA:ligand 1:50
  CPMG variation: -4.16%
  LB: -14.4%
  LOGSY factor: 6.18%
ORF7b RNA; qz2 peak G, RNA:ligand 1:50
  CPMG variation: -19.2%
  LB: -8.90%
  LOGSY factor: 6.45%
ORF7b RNA; qz2 peak I, RNA:ligand 1:50
  CPMG variation: 48.3%
  LB: 30.9%
  LOGSY factor: 7.00%
ORF7b RNA; qz2 peak J, RNA:ligand 1:50
  CPMG variation: 45.5%
  LB: 38.3%
  LOGSY factor: 76.3%
ORF7b RNA; qz2 peak K, RNA:ligand 1:50
  CPMG variation: 58.5%
  LB: 9.52%
  LOGSY factor: 17.9%
3_S2m RNA [1]
  RNA chemical shift perturbations: smaller perturbations
[2]
  Previous target RNA binding: yes
3_S2m RNA [3]; [5]
  CPMG variation: -0.71%
  LB: 1.30%
  LOGSY factor: 3.15%
3_S2m RNA [3]; [6]
  CPMG variation: 10.3%
  LB: 6.50%
  LOGSY factor: 11.1%
3_S2m RNA [3]; qz2 peak A, RNA:ligand 1:50
  CPMG variation: 6.71%
  LB: 4.87%
  LOGSY factor: 1.60%
3_S2m RNA [3]; qz2 peak C/D, RNA:ligand 1:50
  CPMG variation: -1.93%
  LB: 2.61%
  LOGSY factor: 3.32%
3_S2m RNA [3]; qz2 peak E/B, RNA:ligand 1:50
  CPMG variation: -10.6%
  LB: 11.4%
  LOGSY factor: 6.11%
3_S2m RNA [3]; qz2 peak F, RNA:ligand 1:50
  CPMG variation: 6.38%
  LB: -12.7%
  LOGSY factor: 2.81%
3_S2m RNA [3]; qz2 peak G, RNA:ligand 1:50
  CPMG variation: -1.76%
  LB: 4.32%
  LOGSY factor: 1.92%
3_S2m RNA [3]; qz2 peak I, RNA:ligand 1:50
  CPMG variation: 10.3%
  LB: 11.5%
  LOGSY factor: 5.19%
3_S2m RNA [3]; qz2 peak J, RNA:ligand 1:50
  CPMG variation: 9.16%
  LB: 11.3%
  LOGSY factor: 9.42%
3_S2m RNA [3]; qz2 peak K, RNA:ligand 1:50
  CPMG variation: 11.6%
  LB: -3.23%
  LOGSY factor: 18.7%
3_S2m-23fl RNA hairpin; [7]
  Kd: 26.7 µM

## NCCCc1cn(C(c2ccccc2)(c2ccccc2)c2ccccc2)cn1 [trim]
In vitro
  CC50 at 2 days: > 90 µM
SCoV2 USA-WA1/2020
  nucleocapsid protein expression: strongly inhibited
SARS-CoV-2
  viral titers in supernatants (TCID50): below the limit of detection
HIV-1
  Previous target virus activity: yes
ORF7b RNA; [5]
  CPMG variation: 38.7%
  LB: 13.5%
  LOGSY factor: 103%
ORF7b RNA; [6]
  CPMG variation: 30.2%
  LB: 4.23%
  LOGSY factor: 208%
ORF7b RNA; trim peak A, RNA:ligand 1:50
  CPMG variation: 34.9%
  LB: 15.8%
  LOGSY factor: 75.4%
ORF7b RNA; trim peak B, RNA:ligand 1:50
  CPMG variation: 44.0%
  LB: 12.4%
  LOGSY factor: 132%
ORF7b RNA; trim peak C, RNA:ligand 1:50
  CPMG variation: 18.3%
  LB: -3.43%
  LOGSY factor: 210%
ORF7b RNA; trim peak D, RNA:ligand 1:50
  CPMG variation: 41.8%
  LB: 7.94%
  LOGSY factor: 218%
ORF7b RNA; trim peak E, RNA:ligand 1:50
  CPMG variation: 20.4%
  LB: 4.46%
  LOGSY factor: 196%
3_S2m RNA [1]
  RNA chemical shift perturbations: strongest RNA chemical shift perturbations
Vero E6 cells
  CC50: > 89.8 µM
5_SL2+3 RNA
  TOCSY perturbations: larger variations than clomiphene or qz2
[4]
  Previous target RNA binding: yes
3_S2m RNA [3]; [5]
  CPMG variation: 15.7%
  LB: 9.33%
  LOGSY factor: 39.4%
3_S2m RNA [3]; [6]
  CPMG variation: 24.0%
  LB: 8.82%
  LOGSY factor: 54.4%
3_S2m RNA [3]; trim peak A, RNA:ligand 1:50
  CPMG variation: 15.8%
  LB: 5.70%
  LOGSY factor: 45.5%
3_S2m RNA [3]; trim peak B, RNA:ligand 1:50
  CPMG variation: 22.1%
  LB: 11.1%
  LOGSY factor: 33.3%
3_S2m RNA [3]; trim peak C, RNA:ligand 1:50
  CPMG variation: 22.2%
  LB: 11.7%
  LOGSY factor: 54.5%
3_S2m RNA [3]; trim peak D, RNA:ligand 1:50
  CPMG variation: 24.2%
  LB: 4.64%
  LOGSY factor: 70.5%
3_S2m RNA [3]; trim peak E, RNA:ligand 1:50
  CPMG variation: 26.4%
  LB: 14.3%
  LOGSY factor: 38.2%
3_S2m-23fl RNA hairpin; [7]
  Kd: 19.3 µM
3_S2m-23fl RNA hairpin; 150 mM NaCl, 100-fold molar excess of tRNA, read-out: Kd-tRNA
  Kd: 8.97 µM
3_S2m-23fl RNA hairpin; 150 mM NaCl, pH 6.6, 25 °C, no tRNA, read-out: Kd
  Kd: 12.5 µM
